Measured values from patent US9066518B2, “Heterocyclic compounds as pesticides” (Bayer CropScience AG, priority 2009, dated 2015).
Read-outs that look alike come from different tables or passages of the source.

Experiments:
[1] = logP determination (neutral / HCOOH); conditions: for chromatographic logP: HCOOH (formic acid)
[2] = test system: green peach aphid (Myzus persicae); assay: Myzus test (spray treatment); type: in vivo; conditions: foliar, 144 h, read-out: activity (effect in %, aphids killed)
Protocol: Solvents: 78 parts by weight of acetone
• 1.5 parts by weight of dimethylformamide Emulsifier 0.5 part by weight of alkylaryl polyglycol ether
To produce a suitable preparation of active compound, 1 part by weight of active compound is mixed with the stated amounts of solvents and emulsifier, and the concentrate is diluted with emulsifier-containing water to the desired concentration. Discs of leaves of Chinese cabbage (Brassica pekinensis) which are infested by all stages of the green peach aphid (Myzus persicae) are sprayed with an active compound preparation of the desired concentration.
After 6 days, the effect in % is determined. 100% means that all aphids have been killed; 0% means that none of the aphids has been killed.

[3] = application rate 500 g/ha, after 6 days, Chinese cabbage leaf discs

Structure (SMILES)	chromatographic logP ([1]; logP (HCOOH), HCOOH)	pest or weed control at 500 g/ha [2, 3] [%]	other results
COCC(=O)c1cccc(Br)n1 [1-(6-Bromopyridin-2-yl)-2-methoxyethanone]			logP ([1]; logP (neutral), neutral): 1.73
CC(=O)c1cnn(-c2cccnc2)c1 [1-[1-(Pyridin-3-yl)-1H-pyrazol-4-yl]ethanone]	0.76		
CC(=O)c1cccc(-c2cnn(-c3cccnc3)c2)n1 [1-[6-(1-Pyridin-3-yl-1H-pyrazol-4-yl)pyridin-2-yl]ethanone]			logP ([1]; logP (neutral), neutral): 1.94
c1cnc(-c2cc[nH]n2)nc1 [2-(1H-Pyrazol-3-yl)pyrimidine]	0.1		
Brc1cccc(-c2ncccn2)n1 [2-(6-Bromopyridin-2-yl)pyrimidine]	1.3		
NC(=S)c1cccc(-c2cnn(-c3cccnc3)c2)n1 [6-(1-Pyridin-3-yl-1H-pyrazol-4-yl)pyridine-2-carbothioamide]			logP ([1]; logP (neutral), neutral): 1.77
N=C(N)c1cccc(-c2cnn(-c3cccnc3)c2)n1 [6-(1-Pyridin-3-yl-1H-pyrazol-4-yl)pyridine-2-carboxamidine]			logP ([1]; logP (neutral), neutral): 1.99
CN(C)/C=C/C(=O)c1cnn(-c2cccnc2)c1 [(2E)-3-(Dimethylamino)-1-[1-(pyridin-3-yl)-1H-pyrazol-4-yl]prop-2-en-1-one]			logP ([1]; HCOOH, logP (HCOOH)): 0.93
c1cnc(-c2ccn(-c3cnn(-c4cccnc4)c3)n2)nc1 [Example 2, 1′-(Pyridin-3-yl)-3-(pyrimidin-2-yl)-1′H-1,4′-bipyrazole]		100	logP ([1]; HCOOH, logP (HCOOH)): 1.18
FC(F)(F)c1ccn(-c2cnn(-c3cccnc3)c2)n1 [Example 3, 1′-Pyridin-3-yl-3-trifluoromethyl-1′H-[1,4′]bipyrazolyl]	2.27	100	
Cn1cnc(-c2cccc(-c3cnn(-c4cccnc4)c3)n2)n1 [Example 6, 2-(1-Methyl-1H-[1,2,4]triazol-3-yl)-6-(1-pyridin-3-yl-1H-pyrazol-4-yl)pyridine]		100	logP ([1]; logP (neutral), neutral): 1.29
FC(F)(F)C(F)(F)c1nccc(-c2cnn(-c3cccnc3)c2)n1 [Example 9, 2-(Pentafluoroethyl)-4-[1-(pyridin-3-yl)-1H-pyrazol-4-yl]pyrimidine]		100	logP ([1]; HCOOH, logP (HCOOH)): 2.7
CC1(c2cccc(-c3cnn(-c4cccnc4)c3)n2)OCCO1 [Example 10, 2-(2-Methyl-1,3-dioxolan-2-yl)-6-(1-pyridin-3-yl-1H-pyrazol-4-yl)pyridine]			pest or weed control at 500 g/ha ([2]; in Brassica rapa): 100%; logP ([1]; logP (neutral), neutral): 1.89
COCC(F)(F)c1cccc(-c2cnn(-c3cccnc3)c2)n1 [Example 11, 2-(1,1-Difluoro-2-methoxyethyl)-6-(1-pyridin-3-yl-1H-pyrazol-4-yl)pyridine]		100	logP ([1]; logP (neutral), neutral): 2.3
c1cncc(-n2cc(-c3cccc(C4OCCCO4)n3)cn2)c1 [Example 13]	1.59	90	
Fc1cncc(-n2cc(-c3cccc(-c4ncccn4)n3)cn2)c1 [Example 14]	1.81	90	
O=C(c1cccc(-c2cnn(-c3cccnc3)c2)n1)N1CCOCC1 [Example 18]	1.23	100	
Cc1nn(-c2cccnc2)cc1-n1ccc(C(F)(F)F)n1 [Example 26]	2.51	100	
CC(C)(C)OC(=O)Nc1cccc(-c2cnn(-c3cccnc3)c2)n1 [Example 27]	2.87	100	
N#Cc1cccc(-c2cnn(-c3cccnc3)c2)n1 [Example 30, 6-(1-Pyridin-3-yl-1H-pyrazol-4-yl)pyridine-2-carbonitrile]			pest or weed control at 500 g/ha ([2]; in Brassica rapa): 100%; logP ([1]; logP (neutral), neutral): 1.79; logP (neutral) ([1]; neutral): 1.73
FC(F)(F)c1cccc(-c2cnn(-c3cccnc3)c2)c1 [Example 52]	2.99		
O=C1CCCCN1c1cccc(-c2cnn(-c3cccnc3)c2)n1 [Example 81]	1.59		
CC1(C)COC(c2cccc(-c3cnn(-c4cccnc4)c3)n2)OC1 [Example 104]	2.44		logP ([1]; logP (neutral), neutral): 2.55
Brc1cncc(-n2cc(-c3cccc(-c4ncccn4)n3)cn2)c1 [Example 111]	2.17		
N=C(NO)c1cccc(-c2cnn(-c3cccnc3)c2)n1 [N-Hydroxy-6-(1-pyridin-3-yl-1H-pyrazol-4-ylpyridine-2-carboxamidine]			logP ([1]; logP (neutral), neutral): 1.23
CON(C)C(=O)c1cnn(-c2cccnc2)c1 [N-Methoxy-N-methyl-1-(pyridin-3-yl)-1H-pyrazole-4-carboxamide]			logP ([1]; HCOOH, logP (HCOOH)): 0.91
CC1(C)OB(c2cnn(-c3cncc(F)c3)c2)OC1(C)C [VI-2]	2.88		
CC1(C)OB(c2cnn(-c3cncnc3)c2)OC1(C)C [VI-3]	2.1		

Further lines, with some results ahead:

chromatographic logP ([1]; logP (HCOOH), HCOOH)	Structure (SMILES)	pest or weed control at 500 g/ha [2, 3] [%]	other results
2.51	FC(F)(F)c1cccc(-c2cnn(-c3cccnc3)c2)n1 [Example 4, 2-[1-(Pyridin-3-yl)-1H-pyrazol-4-yl]-6-(trifluoromethyl)pyridine]	100	
2.15	FC(F)(F)c1ccnc(-n2ccc(-c3cnn(-c4cccnc4)c3)n2)n1 [Example 8, 1′-(Pyridin-3-yl)-1-[4-(trifluoromethyl)pyrimidin-2-yl]-1H,1′H-3,4′-bipyrazole]	90	
0.81	c1ccc(-c2cnn(-c3cccnc3)c2)nc1 [Example 12]	100	
2.13	FC(F)(F)c1nccc(-c2cnn(-c3cccnc3)c2)n1 [Example 15]	100	
1.24	CN(C)C(=O)c1cccc(-c2cnn(-c3cccnc3)c2)n1 [Example 17]	100	
2.21	c1cncc(-n2cc(-c3cccc(-n4cccn4)n3)cn2)c1 [Example 19]	100	
2.05	Clc1cccc(-c2cnn(-c3cccnc3)c2)n1 [Example 20]		
2.64	Cc1cc(C)n(-c2cccc(-c3cnn(-c4cccnc4)c3)n2)n1 [Example 21]	100	
1.19	c1ccc(-c2ccn(-c3cnn(-c4cccnc4)c3)n2)nc1 [Example 23]	100	
2.18	Brc1cccc(-c2cnn(-c3cccnc3)c2)n1 [Example 24]	100	
2.96	FC(F)(F)COc1cccc(-c2cnn(-c3cccnc3)c2)n1 [Example 25]		pest or weed control at 100 g/ha ([2]; application rate 100 g/ha, after 6 days, Chinese cabbage leaf discs): 80%
1.71	COc1ccnc(-n2ccc(-c3cnn(-c4cccnc4)c3)n2)n1 [Example 28]	100	
2.46	CC(F)(F)c1cccc(-c2cnn(-c3cccnc3)c2)n1 [Example 29]	90	
1.52	Fc1cnc(-n2ccc(-c3cnn(-c4cccnc4)c3)n2)nc1 [Example 31]	100	
3.18	FC(F)(F)c1cccc(-n2ccc(-c3cnn(-c4cccnc4)c3)n2)n1 [Example 41]		
2.12	COc1ccc(-c2cnn(-c3cccnc3)c2)cc1 [Example 53]		
1.86	O=C1CCCN1c1cccc(-c2cnn(-c3cccnc3)c2)n1 [Example 80]		
0.89	c1cncc(-n2cc(-c3ccncn3)cn2)c1 [Example 113]		
0.86	N=C(NO)c1cccc(-c2cnn(-c3cccnc3)c2)n1 [Example 114]		
